# Experimental data taken from patent publication US7714134B2, “Compounds and use of tetrahydropyridothiophenes” (4SC AG, priority 2004, dated 2010).
# pIC50: −log10 of the molar value.
# Tests used:
# [1] = tested on: RKO colon adenocarcinoma cells (RKOp27) arrested by expression of ectopic p27Kip1; assay: Alamar Blue cell viability assay, cell cycle specific mode of action, RKO p27 induced (arrested by Ponasterone A-induced p27Kip1); assay type: cell-based; conditions: Homo sapiens, RKOp27, 72 h, cells arrested by p27Kip1 induced with 10 μM Ponasterone A, 72 hours incubation
# Protocol: To determine the cell cycle specific mode of action, subdlones of RKO colon adenocarcinoma cells (RKOp27 or RKOp21 as described by Schmidt et al. in Oncogene 19, 2423-2429; 2000) are seeded into 96 well flat bottom plates at a density of 16000 cells per well in a volume of 50 μl per well in DMEM growth medium with 10% FCS containing 10 μM Ponasterone A. 24 hours after seeding the 50 μl each of the compound dilutions in DMEM medium are added into each well of the 96 Well plate. Each compound dilution is tested as quadruplicates. Wells containing untreated control cells are filled with 50 μl DMEM medium containing 1% DMSO. The cells are then incubated with the substances for 72 hours at 37° C. in a humidified atmosphere containing 5% carbon dioxide. To determine the viability of the cells, 10 μl of an Alamar Blue solution (Biosource) are added and the fluorescence was measured at an extinction of 544 nm and an emission of 590 nm. For the calculation of the cell viability the emission value from untreated cells is set as 100% viability and the emission rates of treated cells are set in relation to the values of untreated cells. Viabilities are expressed as % values. Viability is compared of proliferating cells grown in the absence of the inducer Ponasterone A, versus viability of cells arrested by the expression of ectopic p27Kip1 induced by Ponasterone A. The data of this experimental setting are summarized in table A (2nd column).
# [2] = tested on: RKO (RKOp27) human colon adenocarcinoma cells; assay: Alamar Blue cell viability assay, anti-proliferative/cytotoxic activity, RKO p27 uninduced; assay type: cell-based; conditions: RKOp27, 72 h, proliferating cells, absence of the inducer Ponasterone A, 72 hours incubation
# Protocol: The anti-proliferative/cytotoxic activity of the compounds described herein, can be tested on subdlones of RKO (RKOp27) human colon adenocarcinoma cells (Schmidt et al., Oncogene 19, 2423-2429; 2000) using the Alamar Blue cell viability assay (described in O'Brien et al. Eur J Biochem 267, 5421-5426, 2000). The compounds are dissolved as 20 mM solutions in dimethylsulfoxide (DMSO) and subsequently diluted in semi-logarithmic steps. DMSO dilutions are further diluted 1:100 into Dulbecco's modified Eagle's medium (DMEM) containing 10% fetal calf serum to a final concentration twice as much as the final concentration in the test. RKO subclones are seeded into 96 well flat bottom plates at a density of 4000 cells per well in a volume of 50 µl per well. 24 hours after seeding the 50 μl each of the compound dilutions in DMEM medium are added into each well of the 96 Well plate. Each compound dilution is tested as quadruplicates. Wells containing untreated control cells are filled with 50 μl DMEM medium containing 1% DMSO. The cells are then incubated with the substances for 72 hours at 37° C. in a humidified atmosphere containing 5% carbon dioxide. To determine the viability of the cells, 10 μl of an Alamar Blue solution (Biosource) are added and the fluorescence is measured at an extinction of 544 nm and an emission of 590 nm. For the calculation of the cell viability the emission value from untreated cells is set as 100% viability and the emission rates of treated cells are set in relation to the values of untreated cells. Viabilities are expressed as % values.
# The corresponding IC50 values of the compounds for anti-proliferative/cytotoxic activity are determined from the concentration-effect curves.
# Representative IC50 values for anti-proliferation/cytotoxicity determined for the compounds mentioned and numbered as Examples in the examples above follow from the following table A (1st column), in which the numbers of the compound correspond to the numbers of the examples. Any or all of the compounds according to the present invention which are listed in the Table A, as well as their salts, are to be mentioned as a particular interesting subject of the present invention.
Compound,pIC50 [1],pIC50 [2]
"CCOC(=O)N1CCc2c(sc(NC(=O)c3ccccc3)c2C#N)C1 [Compound 18, N-(6-Ethoxycarbonyl-3-cyano-4,5,6,7-tetrahydro-thieno[2,3-c]pyridin-2-yl)-benzamide]",< 4.00,≥ 5.70
N#Cc1c(NC(=O)c2ccccc2)sc2c1CCN(C(=O)OCCn1ccnc1)C2 [Compound 95],< 4.00,≥ 5.52
"CC(=O)OCCCC(=O)N1CCc2c(sc(NC(=O)c3ccccc3)c2C#N)C1 [Compound 86, Acetic acid 4-{3-cyano-2-[(1-phenyl-methanoyl)-amino]4,7-dihydro-5H-thieno[2,3-c]pyridin-6-yl}-4-oxo-butyl ester]",< 4.00,≥ 5.52
"COc1cccc(C(=O)Nc2sc3c(c2C#N)CCN(C(C)=O)C3)c1 [Compound 24, N-(6-Acetyl-3-cyano-4,5,6,7-tetrahydro-thieno[2,3-c]pyridin-2-yl)-3-methoxy-benzamide]",< 4.00,≥ 5.70
"CCCC(=O)N1CCc2c(sc(NC(=O)c3cccc(OC)c3)c2C#N)C1 [Compound 25, N-(6-Butyryl-3-cyano-4,5,6,7-tetrahydro-thieno[2,3-c]pyridin-2-yl)-3-methoxy-benzamide]",< 4.00,≥ 5.70
"N#Cc1c(NC(=O)c2ccccc2)sc2c1CCN(C(=O)CCCn1ccnc1)C2 [Compound 85, N-[3-Cyano-6-(4-imidazol-1-yl-butanoyl)-4,5,6,7-tetrahydro-thieno[2,3-c]pyridin-2-yl]-benzamide]",< 4.00,≥ 5.52
CCCCCOC(=O)N1CCc2c(sc(NC(=O)c3ccccc3)c2C#N)C1 [Compound 14],< 4.00,≥ 5.70
"CC(=O)CCC(=O)N1CCc2c(sc(NC(=O)c3ccccc3)c2C#N)C1 [Compound 27, N-[3-Cyano-6-(4-oxo-pentanoyl)-4,5,6,7-tetrahydro-thieno[2,3-c]pyridin-2-yl]-benzamide]",< 4.00,≥ 5.70
"CC(C)(C)OC(=O)N1CCc2c(sc(NC(=O)c3ccccc3)c2C#N)C1 [Compound 1, N-(6-tert.-Butyloxycarbonyl-3-cyano-4,5,6,7-tetrahydro-thieno[2,3-c]pyridin-2-yl)-benzamide]",< 4.00,≥ 5.70
"N#Cc1c(NC(=O)c2ccccc2)sc2c1CCN(C(=O)NCCc1ccccn1)C2 [Compound 99, 3-Cyano-2-[(1-phenyl-methanoyl)-amino]-4,7-dihydro-5H-thieno[2,3-c]pyridine-6-carboxylic acid (2-pyridin-2-yl-ethyl)-amide]",< 4.00,≥ 5.52
"N#Cc1c(NC(=O)c2ccccc2)sc2c1CCN(C(=O)OCCO)C2 [Compound 97, 3-Cyano-2-[(1-phenyl-methanoyl)-amino]-4,7-dihydro-5H-thieno[2,3-c]pyridine-6-carboxylic acid 2-hydroxy-ethyl ester]",< 4.00,≥ 5.52
"COC(=O)CCSC(=O)N1CCc2c(sc(NC(=O)c3ccccc3)c2C#N)C1 [Compound 102, 3-(1{3-Cyano-2-[(1-phenyl-methanoyl)-amino]-4,7-dihydro-5H-thieno[2,3-c]pyridin-6-yl}-methanoylsulfanyl)-propionic acid methyl ester]",< 4.00,≥ 5.52
"CC(=O)N1CCc2c(sc(NC(=O)c3ccccc3)c2C#N)C1 [Compound 20, N-(6-Acetyl-3-cyano-4,5,6,7-tetrahydro-thieno[2,3-c]pyridin-2-yl)-benzamide]",< 4.00,5.52
"CCCCCSC(=O)N1CCc2c(sc(NC(=O)c3ccccc3)c2C#N)C1 [Compound 101, 3-Cyano-2-[(1-phenyl-methanoyl)-amino]-4,7-dihydro-5H-thieno[2,3-c]pyridine6-carbothioic acid S-pentyl ester]",< 4.00,≥ 5.52

# Second part, led by results:
pIC50 [1],Compound,pIC50 [2]
< 4.00,"CCSC(=O)N1CCc2c(sc(NC(=O)c3ccccc3)c2C#N)C1 [Compound 29, N-(3-Cyano-7-(ethylthiocarbonyl)-4,5,6,7-tetrahvdro-thieno[2,3-c]pyridin-2-yl)-benzamide]",≥ 5.70
< 4.22,"CC1(C)OCC(COC(=O)N2CCc3c(sc(NC(=O)c4ccccc4)c3C#N)C2)O1 (stereo not shown) [Compound 74, 3-Cyano-2-[(1-phenyl-methanoyl)-amino]-4,7-dihydro-5H-thieno[2,3-c]pyridine-6-carboxylic acid 2,2-dimethyl-[1,3]dioxolan-4-ylmethyl ester]",≥ 5.52
< 4.22,"CCOC(=O)CC(=O)N1CCc2c(sc(NC(=O)c3ccccc3)c2C#N)C1 [Compound 31, 3-{3-Cyano-2-[(1-phenyl-methanoyl)-amino]-4,7-dihydro-5H-thieno[2,3-c]pyridin-6-yl}-3-oxo-propionic acid ethyl ester]",≥ 5.52
< 4.22,"CCOC(=O)N1CCc2c(sc(NC(=O)c3ccc(Cl)cc3)c2C#N)C1 [Compound 47, 2-{[1-(4-Chloro-phenyl)-methanoyl]-amino}-3-cyano-4,7-dihydro-5H-thieno[2,3-c]pyridin-6-carboxylic acid ethyl ester]",≥ 5.52
< 4.22,"COC(=O)N1CCc2c(sc(NC(=O)c3ccccc3)c2C#N)C1 [Compound 54, 3-Cyano-2-[(1-phenyl-methanoyl)-amino]-4,7-dihydro-5H-thieno[2,3-c]pyridine-6-carboxylic acid methyl ester]",≥ 5.52
< 4.22,"COc1ccc(OC(=O)N2CCc3c(sc(NC(=O)c4ccccc4)c3C#N)C2)cc1 [Compound 60, 3-Cyano-2-[(1-phenyl-methanoyl)-amino]-4,7-dihydro-5H-thieno[2,3-c]pyridine-6-carboxylic acid 4-methoxy-phenyl ester]",≥ 5.52
< 4.22,"N#Cc1c(NC(=O)c2ccccc2)sc2c1CCN(C(=O)CCn1cnnc1)C2 [Compound 34, N-[3-Cyano-6-(3-[1,2,4]triazol-4-yl-propanoyl)-4,5,6,7-tetrahvdro-thieno[2,3-c]pyridin-2-yl]-benzamide]",≥ 5.52
< 4.22,"N#Cc1c(NC(=O)c2ccccc2)sc2c1CCN(C(=O)CCc1c[nH]c3ccccc13)C2 [Compound 30, N-[3-Cyano-6-(3-1H-indol-3-yl-propanoyl)-4,5,6,7-tetrahydro-thieno[2,3-c]pyridin-2-yl]-benzamide]",≥ 5.52
< 4.22,COCCOCC(=O)N1CCc2c(sc(NC(=O)c3ccccc3)c2C#N)C1 [Compound 40],≥ 5.52
< 4.22,"N#Cc1c(NC(=O)c2ccccc2)sc2c1CCN(C(=O)Oc1ccccc1)C2 [Compound 59, 3-Cyano-2-[(1-phenyl-methanoyl)-amino]-4,7-dihydro-5H-thieno[2,3-c]pyridine-6-carboxylic acid phenyl ester]",≥ 5.52
< 4.22,"N#Cc1c(NC(=O)c2ccccc2)sc2c1CCN(C(=O)NCCc1c[nH]c3ccccc13)C2 [Compound 81, 3-Cyano-2-[(1-phenyl-methanoyl)-amino]-4,7-dihydro-5H-thieno[2,3-c]pyridine-6-carboxylic acid [2-(1H-indol-3-yl)-ethyl]-amide]",≥ 5.52
< 4.22,"N#Cc1c(NC(=O)c2ccccc2)sc2c1CCN(C(=O)CCCc1c[nH]c3ccccc13)C2 [Compound 37, N-[3-Cyano-6-(4-1H-indol-3-yl-butanoyl)-4,5,6,7-tetrahydro-thieno[2,3-c]pyridin-2-yl]-benzamide]",≥ 5.52
